Data set [1] is described as follows: randomized open-label pharmacokinetic study of oral-mucosal tablets versus oral 8 mg tablet. The format is in vivo, human. The settings on record: for AUC(0-t) / Cmax: human serum, mean, N=6, measurement substance = label. The procedure:
A randomized, open-label study to assess the pharmacokinetic parameters of an oral-mucosal tablet containing Compound A and its bioavailability relative to an oral 8 mg tablet containing Compound A was performed.
The test was conducted in two parts: (1) a parallel-group design to evaluate the pharmacokinetic parameters of 3 doses of Compound A (0.25, 0.5 and 1 mg) in oral-mucosal tablets and (2) an open-label, randomized 2-period crossover design to assess the relative bioavailability (pharmacokinetic profile) of the oral-mucosal 0.5 mg tablet compared with the bioavailability of the oral 8 mg tablet.
For part (1), a total of 18 subjects were randomly assigned to 1 of the 3 dosing regimens (i.e., 0.25, 0.5 and 1 mg; 6 subjects per dose) and each subject received a single dose of Compound A at the assigned dose.
For part (2), a total of 24 subjects were randomly assigned to take either the oral-mucosal 0.5 mg tablet or the oral 8 mg tablet at a single dose during each of the two periods.
To evaluate the studies, the pharmacokinetic parameters of Compound A and M-II were measured, including maximum observed serum concentration (Cmax) and area under the serum concentration-time curve from time 0 to the last quantifiable concentration (AUC(0-tlqc)).

A short description of data set [2]: blood kinetics of unchanged form and active metabolite M-II after oral or sublingual administration to human (cross-over, open-label). The settings on record: for Cmax: serum, mean. Type of data set: in vivo. The procedure: Oral preparation and preparation for oral-mucosal absorption were measured for blood kinetics of unchanged form and active metabolite M-II after oral or sublingual administration to human. The plasma concentration before administration, and 5 min, 10 min, 15 min, 20 min, 30 min, 45 min, 60 min, 90 min, 120 min, 180 min, 240 min, 360 min, 480 min, 600 min, 720 min and 1440 min after administration was measured.
To be specific, symbol/term and definition thereof in this table are explained in the following. The study was conducted by cross-over method under open-label condition.
AUC(0-tlqc): Area under the serum concentration-time curve from time 0 to time of the last quantifiable concentration (tlqc), calculated using the linear trapezoidal rule.
AUC(0-inf): Area under the serum concentration-time curve from time 0 to infinity, calculated as AUC(0-inf)=AUC(0-tlqc)+lqc/λz, where tlqc is the time of last quantifiable concentration and lqc is the last quantifiable concentration. λz: Terminal elimination rate constant, calculated as the negative of the slope of the log-linear regression of the natural logarithm concentration-time curve during the terminal phase. Cmax: Maximum observed serum concentration. Tmax: Time to reach Cmax. Active metaboline M-II: (2S)-2-Hydroxy-N-{2-[(8S)-1,6,7,8-tetrahydro-2H-indeno[5,4-b]furan-8-yl]ethyl}propanamide

For data set [3], the system named is patients suffering from bipolar disorder and in the remission phase. Description: maintenance of remission phase in patients with bipolar disorder, double-blind randomized placebo-controlled trial. The format is in vivo, human. As to conditions: oral 8 mg once daily at bedtime. As for the experimental part: Oral 8 mg formulation containing Compound A The test tablet was administered to a group of patients suffering from bipolar disorder and in the remission phase, once daily at bedtime for 6 months. A placebo was administered once daily at bedtime to a separate control group of patients in the remission phase of bipolar disorder for 6 months. This study was performed as a double-blind, randomized, placebo-controlled trial. The time from randomization to relapse over 6 months of treatment is determined by the Primary Investigator (PI) or defined by any of the following criteria: depression [Montgomery-Asberg Depression Rating Scale (MADRS) score ≧16]; mania/hypomania [Young Mania Rating Scale (YMRS) total score ≧14]; clinical global impressions bipolar version (CGI-BP); cumulative proportion of participants in each arm (placebo or Compound A) surviving without relapse [MADRS score ≧16 and YMRS total score ≧14], a medication initiation or change for manic/depressed/mixed symptoms, a hospitalization for manic/depressed/mixed symptoms and suicide risk or imminent risk of suicide.

Data set [4] relates to patients suffering from bipolar disorder. Description: acute depression in patients with bipolar disorder, double-blind randomized placebo-controlled trial (CGI-BP). Type of data set: in vivo, human. As to conditions: oral 8 mg once daily up to 8 weeks; value below 0 favors Compound A; 95% CI; N=9; P value=0.001.
A short description of data set [5]: solubility of compound A. The format is physicochemical. The settings on record: irrespective of pH.
Where [6] appears, read: single oral-mucosal tablet dose of Compound A 0.25 mg.
The mark [7] stands for this setting: single oral-mucosal tablet dose of Compound A 0.5 mg.
[8] abbreviates: single oral-mucosal tablet dose of Compound A 1 mg.

Each structure is given as a SMILES string. Converted amounts (≈) assume the structure as drawn.

The source of these data is patent US8642649B2, “Orally dispersible tablet” (Takeda Pharmaceutical Company Limited, priority 2011, dated 2014).

`C[C@H](O)C(=O)NCC[C@@H]1CCc2ccc3c(c21)CCO3` [M-II, (2S)-2-Hydroxy-N-{2-[(8S)-1,6,7,8-tetrahydro-2H-indeno[5,4-b]furan-8-yl]ethyl}propanamide]: the AUC(0-t) (commonly exposure summed from dosing to a finite time, without extrapolation to infinity) worked out at 4.64 ng·h/mL in data set [1] (setting [6]), 10.5 ng·h/mL in data set [1] (setting [7]) and 20.2 ng·h/mL in data set [1] (setting [8]). Besides, the results for the Cmax in data set [1] (setting [6]), in data set [1] (setting [7]) and in data set [1] (setting [8]) were 1.85 ng/mL, 3.74 ng/mL and 7.68 ng/mL, respectively. In addition, the “fraction of exposure compared to the approved oral 8 mg tablet” value in data set [1] (oral-mucosal administration 0.5 mg) is below 7%.
On to `CCC(=O)NCC[C@@H]1CCc2ccc3c(c21)CCO3` [compound A, (S)—N-[2-(1,6,7,8-tetrahydro-2H-indeno[5,4-b]furan-8-yl)ethyl]propionamide], for which the “AUC(0-inf) unchanged/metabolite ratio” value in data set [2] (oral administration) is 0.03; in data set [2] (sublingual administration), 0.30. The Cmax unchanged/metabolite ratio in data set [2] (oral administration) stood at 0.07; in data set [2] (sublingual administration), 1.13. Moreover, the Cmax (in general, the peak of the concentration-time curve) in data set [2] (oral, dose 8 mg) was determined as 4.76 ± 5.19 ng/mL; in data set [2] (sublingual, dose 0.5 mg), 4.74 ng/mL; in data set [1] (setting [6]), 3.14 ng/mL; in data set [1] (setting [7]), 5.85 ng/mL; in data set [1] (setting [8]), 9.57 ng/mL. Moreover, the “Cumulative Proportion of Patients in each arm surviving without relapse” value is 1.00 in data set [3] (Baseline); 0.929 in data set [3] (Month 1); 0.849 in data set [3] (Month 2); 0.716 in data set [3] (Month 3); 0.661 in data set [3] (Month 4); 0.632 in data set [3] (Month 5). Also, the “Cumulative Proportion of Patients in each arm surviving without relapse” value in data set [3] (Month 6) is 0.566. The “CGI-BP severity for depression, longitudinal analysis of change in outcome” value in data set [4] is −0.1 (−0.16 to −0.05). For the same compound, the AUC(0-t) in data set [1] (setting [6]) came out at 2.6 ng·h/mL; in data set [1] (setting [7]), 6.23 ng·h/mL; in data set [1] (setting [8]), 7.87 ng·h/mL. Moreover, the solubility – broadly, how much of the substance goes into solution per volume – in data set [5] is around 200 µg/mL (≈ 771 µM).
